Laboratory results published in patent US8501804B2, “Bicyclic compound” (Takeda Pharmaceutical Company Limited, priority 2008, dated 2013).

Columns and labels:
human ACC2 (Nd) = target: T1, human ACC2 (Nd) (Homo sapiens, UniProt O00763); experiment: ACC2 inhibitory activity (malachite green); format: biochemical; conditions: test compound 10 μM; for inhibition at 10 µM: read-out: ACC2 10 μM inhibitory rate (%)
T1 construct: His6 (from vector pFAST-BacHTa); made in house; host or cells: SF-9 insect cells, recombinant baculovirus BAC-ACC2 (Nd)
T1 sequence (O00763 117-2458 limits assumed): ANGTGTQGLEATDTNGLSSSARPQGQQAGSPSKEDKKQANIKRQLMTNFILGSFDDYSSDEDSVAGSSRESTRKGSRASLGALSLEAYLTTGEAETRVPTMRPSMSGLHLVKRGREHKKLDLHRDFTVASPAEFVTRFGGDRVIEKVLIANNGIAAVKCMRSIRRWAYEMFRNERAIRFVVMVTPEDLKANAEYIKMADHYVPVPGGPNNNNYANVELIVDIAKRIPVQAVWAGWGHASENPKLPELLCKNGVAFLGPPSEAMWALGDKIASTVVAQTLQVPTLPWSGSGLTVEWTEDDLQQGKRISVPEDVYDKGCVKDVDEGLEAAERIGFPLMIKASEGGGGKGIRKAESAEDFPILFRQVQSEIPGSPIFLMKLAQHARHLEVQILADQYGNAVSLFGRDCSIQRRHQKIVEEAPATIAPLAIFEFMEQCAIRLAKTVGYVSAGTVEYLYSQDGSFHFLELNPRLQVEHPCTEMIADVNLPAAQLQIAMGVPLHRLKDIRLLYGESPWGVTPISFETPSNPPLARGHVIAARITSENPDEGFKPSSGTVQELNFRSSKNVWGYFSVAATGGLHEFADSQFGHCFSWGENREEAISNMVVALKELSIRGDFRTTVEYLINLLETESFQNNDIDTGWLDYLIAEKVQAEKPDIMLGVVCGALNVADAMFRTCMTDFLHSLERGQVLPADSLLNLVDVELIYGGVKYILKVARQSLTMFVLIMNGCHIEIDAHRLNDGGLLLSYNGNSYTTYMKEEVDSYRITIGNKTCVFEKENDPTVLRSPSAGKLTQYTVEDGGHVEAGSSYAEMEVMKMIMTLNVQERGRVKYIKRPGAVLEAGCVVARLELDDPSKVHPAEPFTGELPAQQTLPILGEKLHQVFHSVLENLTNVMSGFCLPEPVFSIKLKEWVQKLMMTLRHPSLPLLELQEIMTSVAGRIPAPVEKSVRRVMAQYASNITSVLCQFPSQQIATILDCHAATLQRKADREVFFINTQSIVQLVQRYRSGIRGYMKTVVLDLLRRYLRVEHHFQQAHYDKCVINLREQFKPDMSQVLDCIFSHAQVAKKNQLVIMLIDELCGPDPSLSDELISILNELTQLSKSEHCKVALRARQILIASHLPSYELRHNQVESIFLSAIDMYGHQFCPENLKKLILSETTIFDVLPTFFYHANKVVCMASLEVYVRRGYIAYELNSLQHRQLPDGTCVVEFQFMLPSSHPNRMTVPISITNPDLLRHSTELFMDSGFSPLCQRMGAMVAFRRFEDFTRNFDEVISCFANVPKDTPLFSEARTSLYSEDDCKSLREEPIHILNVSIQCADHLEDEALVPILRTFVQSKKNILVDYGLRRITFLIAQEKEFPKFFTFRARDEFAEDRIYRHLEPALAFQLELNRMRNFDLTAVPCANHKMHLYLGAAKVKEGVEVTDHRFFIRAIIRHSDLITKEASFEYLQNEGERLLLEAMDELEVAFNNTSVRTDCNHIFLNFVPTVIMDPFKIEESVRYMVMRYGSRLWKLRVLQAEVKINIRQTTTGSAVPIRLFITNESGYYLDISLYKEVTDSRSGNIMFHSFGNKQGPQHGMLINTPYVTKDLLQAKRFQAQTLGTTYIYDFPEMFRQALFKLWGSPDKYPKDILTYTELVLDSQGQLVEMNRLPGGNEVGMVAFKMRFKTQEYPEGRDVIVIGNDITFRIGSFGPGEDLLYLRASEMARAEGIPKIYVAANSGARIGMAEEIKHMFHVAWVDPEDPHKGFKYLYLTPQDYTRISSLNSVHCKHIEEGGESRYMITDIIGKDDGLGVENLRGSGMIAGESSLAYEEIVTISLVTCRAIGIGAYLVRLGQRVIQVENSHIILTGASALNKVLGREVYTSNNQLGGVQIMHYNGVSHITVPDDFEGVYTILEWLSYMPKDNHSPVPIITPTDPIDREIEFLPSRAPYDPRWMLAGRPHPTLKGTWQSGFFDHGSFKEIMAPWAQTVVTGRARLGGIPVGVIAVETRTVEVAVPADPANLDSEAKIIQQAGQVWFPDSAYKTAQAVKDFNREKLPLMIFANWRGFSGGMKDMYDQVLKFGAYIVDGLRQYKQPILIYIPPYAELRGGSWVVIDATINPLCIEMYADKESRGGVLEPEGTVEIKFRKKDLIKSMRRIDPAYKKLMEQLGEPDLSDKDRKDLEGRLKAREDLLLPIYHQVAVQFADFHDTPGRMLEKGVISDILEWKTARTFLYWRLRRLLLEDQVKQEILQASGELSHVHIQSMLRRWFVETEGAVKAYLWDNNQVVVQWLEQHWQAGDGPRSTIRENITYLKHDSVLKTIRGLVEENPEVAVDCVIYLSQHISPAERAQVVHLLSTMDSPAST
Procedure: The ACC2 inhibitory action of the compound of the present invention was evaluated by the following method.
(1) Cloning of Human ACC2 Gene and Preparation of Recombinant Baculovirus
(§1) Human ACC2 gene was cloned by PCR using a human skeletal muscle cDNA library (Clontech) as a template and Primer 1 and Primer 2 shown below. Primer 1 and Primer 2 were prepared by adding SalI, XbaI restriction enzyme recognition sequences based on the information of the base sequence of human ACC2 gene (Genbank Accession U89344).
(§2) PCR was performed using Pyrobest DNA polymerase (TAKARA BIO INC.). The obtained PCR product was cloned to pT7 Blue vector (Novagen) and, after confirmation of the base sequence, digested with restriction enzymes SalI and XbaI. The obtained DNA fragment was inserted into pFAST-BacHTa (Invitrogen) digested with restriction enzymes SalI and XbaI to give expression plasmid ACC2/pFAST-BacHTa.
A plasmid for expression of ACC2 without a mitochondrial targeting sequence was prepared by PCR using the expression plasmid as a template, and Primer 3 (SalI restriction enzyme recognition sequence was added) and Primer 4 prepared by reference to the information of human ACC2 gene base sequence (Genbank Accession U89344).
as §2, with “Pyrobest-DNA” for “Pyrobest DNA”, “AflII.” for “XbaI.”, “ACC2/pFAST-BacHTa” for “pFAST-BacHTa (Invitrogen)”, “AflII” for “XbaI”, “ACC2mito7/pFAST-BacHTa.” for “ACC2/pFAST-BacHTa.”
Using the expression plasmid ACC2mito7/pFAST-BacHTa and BAC-TO-BAC Baculovirus Expression System (Invitrogen), virus stock BAC-ACC2 of recombinant Baculovirus (N terminal deleted (hereinafter Nd)) was prepared.
(2) Preparation of ACC2 (Nd) Protein
SF-9 cells (Invitrogen) were inoculated to a medium (2 L) for insect cells (Sf-900IISFM medium (Invitrogen) containing 10% fetal bovine serum (Trace), 50 mg/L Gentamicin (Invitrogen), 0.1% Pluronic F-68 (Invitrogen)) at 0.5×10^6 cells/mL, and cultured with shaking in Wave Bioreactor (Wave) at 27° C., 20 rpm, rocking angle 6°, oxygen concentration 30%.
On day 4 of the culture, 3 L of the medium for insect cells was added, the rocking angle was set to 8°, and the cells were cultured. On day 5 of the culture, 100 ml of recombinant Baculovirus BAC-ACC2 (Nd) was added, 5 L of the medium for insect cells was further added, the rocking angle was set to 11°, and the cells were cultured for 3 days. The culture medium was centrifuged at 1000×g for 10 min to give virus-infected cells. The cells were washed with phosphate buffered saline (Invitrogen) and centrifuged under the same conditions. The obtained cells were cryopreserved at −80° C.
The cryopreserved cells were thawed in ice and suspended in 900 ml of 25 mM HEPES buffer (pH 7.5) containing 10% Glycerol, 0.13 M NaCl, 1 mM EDTA, 25 mM Sodium β-Glycerophosphate and 1 mM Sodium Orthovanadate, and supplemented with Complete Protease Inhibitor (Nippon Boehringer Ingelheim Co., Ltd.). The obtained suspension was homogenized three times in a polytron homogenizer (Kinematica) at 20,000 rpm for 30 sec. The obtained cell disruption solution was clarified by centrifugation at 31000×g for 60 min, and filtered through a 0.45 μm filter. The filtrate was passed through a column packed with 60 mL of Ni-NTA Super Flow Gel (QUIAGEN) at a flow rate of about 5 mL/min. The column was washed with buffer A (50 mM HEPES (pH 7.5) containing 0.3 M NaCl), further washed with buffer A containing 20 mM Imidazole, and eluted with buffer A containing 100 mM Imidazole. The eluate was concentrated with Vivaspin 20 (Vivascience) with a molecular weight cut off of 30K. The obtained concentrate was dialyzed against 50 mM HEPES (pH 7.5) containing 10 mM MgCl2, 2 mM Dithiothreitol, 10 mM Tripotassium Citrate and 0.3 M NaCl. The inner dialysate was filtered through a 0.22 μm filter to give ACC2 (Nd). […]

human ACC1 = target: T2, human ACC1 (Homo sapiens, UniProt Q13085); experiment: ACC1 inhibitory activity (malachite green); format: biochemical; conditions: test compound 10 μM; for inhibition at 10 µM: read-out: ACC1 10 μM inhibitory rate (%)
T2 construct: His6 (from vector pFAST-BacHTc); made in house; host or cells: SF-9 insect cells, recombinant baculovirus BAC-ACC1
Procedure: The ACC1 inhibitory action of the compound of the present invention was evaluated by the following method.
(1) Cloning of Human ACC1 Gene and Preparation of Recombinant Baculovirus
as §1, with “ACC1” for “ACC2”, “liver” for “skeletal muscle”, “NotI” for “XbaI”, “U19822).” for “U89344).”
as §2, with “NotI.” for “XbaI.”, “pFAST-BacHTc” for “pFAST-BacHTa”, “NotI” for “XbaI”, “ACC1/pFAST-BacHTc.” for “ACC2/pFAST-BacHTa.”
Using the expression plasmid ACC1/pFAST-BacHTc and BAC-TO-BAC Baculovirus Expression System (Invitrogen), virus stock BAC-ACC1 of recombinant Baculovirus was prepared.
(2) Preparation of ACC1 Protein
SF-9 cells (Invitrogen) were inoculated to a medium (1 L) for insect cells (Sf-900IISFM medium (Invitrogen) containing 10% fetal bovine serum (Trace), 50 mg/L Gentamicin (Invitrogen), 0.1% Pluronic F-68 (Invitrogen)) at 1×10^6 cells/mL, and cultured with shaking in 2 L meyer at 27° C., 100 rpm.
After 24 hr of the culture, 10 mL of recombinant Baculovirus BAC-ACC1 was added, and the cells were cultured for 3 days. The culture medium was centrifuged at 1000×g for 5 min to give virus-infected cells. The cells were washed with phosphate buffered saline (Invitrogen) and centrifuged under the same conditions. The obtained cells were cryopreserved at −80° C.
The cryopreserved cells were thawed in ice and suspended in 100 mL of 25 mM HEPES buffer (pH 7.5) containing 10% Glycerol, 0.13 M NaCl, 1 mM EDTA, 25 mM Sodium […] and 1 mM Sodium Orthovanadate, and supplemented with Complete Protease Inhibitor (Nippon Boehringer Ingelheim Co., Ltd.). The obtained suspension was homogenized three times in a polytron homogenizer (Kinematica) at 20,000 rpm for 30 sec. The obtained cell disruption solution was clarified by centrifugation at 185700×g for 50 min, and filtered through a 0.45 μm filter. The filtrate was passed through a column packed with 12 ml of Ni-NTA Super Flow Gel (QUIAGEN) at a flow rate of about 5 mL/min. The column was washed with buffer A (50 mM HEPES (pH 7.5) containing 0.3 M NaCl), further washed with buffer A containing 20 mM Imidazole, and eluted with buffer A containing 100 mM Imidazole. The eluate was concentrated with Vivaspin 20 (Vivascience) with a molecular weight cut off of 30K. The obtained concentrate was dialyzed against Sephadex G-25 (Amersham Biosciences, 358 mL) equilibrated with 50 mM HEPES (pH 7.5) containing 10 mM MgCl2, 2 mM Dithiothreitol, 10 mM Tripotassium Citrate and 0.3 M NaCl. The inner dialysate was concentrated with Vivaspin 20 (Vivascience) with molecular weight cut off of 30K, and concentrate was filtered through a 0.22 μm filter to give ACC1. The obtained ACC1 was cryopreserved at −80° C.
(3) Measurement of ACC1 Inhibitory Activity
ACC1 (0.93 mg/ml) obtained in the above-mentioned (2) was diluted with an enzyme reaction buffer (50 mM HEPES (pH 7.5), 10 mM MgCl2, 10 mM Tripotassium Citrate, 2 mM Dithiothreitol, 0.75 mg/ml Fatty acid free BSA) to a concentration of 8 μg/ml, and the mixture was added to each well of a 384 well assay plate (Nunc 265196) by 10 μl. A test compound was dissolved in dimethyl sulfoxide (DMSO) and the mixture was diluted with an enzyme reaction buffer and the resulting solution (5 μl) was added to each well. The mixture was incubated at 30° C. for 60 min. Then, a substrate solution (50 mM KHCO3, 200 μM ATP, 200 μM Acetyl-CoA, 5 μl) was added to each well, and the mixture was reacted at 30° C. for 20 min (test compound addition group). […]

SMILES | inhibition at 10 µM (human ACC2 (Nd)) | inhibition at 10 µM (human ACC1) | ACC2 10 μM inhibitory rate (%) (human ACC2 (Nd)) | ACC1 10 μM inhibitory rate (%) (human ACC1)
CCOc1ccc(COc2ccc3sc(C(C)NC(C)=O)cc3c2)cc1 (stereo not drawn) [Example 39, N-(1-{5-[(4-ethoxybenzyl)oxy]-1-benzothiophen-2-yl}ethyl)acetamide] | 80% | 17% |  | 
CCOc1ccc(COc2ccc3oc(C(C)NC(C)=O)nc3c2)cc1 (stereo not drawn) [Example 42, N-(1-{5-[(4-ethoxybenzyl)oxy]-1,3-benzoxazol-2-yl}ethyl)acetamide] | 76% | 1% |  | 
CCCCOc1ccc(CCc2ccc3cc(C(C)NC(C)=O)oc3c2)cc1 (stereo not drawn) [Example 44, N-(1-{6-[2-(4-butoxyphenyl)ethyl]-1-benzofuran-2-yl}ethyl)acetamide] | 78% | 35% |  | 
CCCOc1ccc(CCc2ccc3cc(C(C)NC(C)=O)oc3c2)cc1 (stereo not drawn) [Example 47, optically active forms (two kinds) of N-(1-{6-[2-(4-propoxyphenyl)ethyl]-1-benzofuran-2-yl}ethyl)acetamide] |  |  | 91% | 37%
CCOc1ccc(COc2ccc3oc(C(C)NC(C)=O)cc3c2)c(F)c1 (stereo not drawn) [Example 48, N-(1-{5-[(2-fluoro-4-ethoxybenzyl)oxy]-1-benzofuran-2-yl}ethyl)acetamide] | 78% | 10% |  | 
CC(=O)NC(C)c1cc2ccc(CCc3ccc4c(c3)CCO4)cc2o1 (stereo not drawn) [Example 94, N-(1-{6-[2-(2,3-dihydro-1-benzofuran-5-yl)ethyl]-1-benzofuran-2-yl}ethyl)acetamide] | 80% | 19% |  | 
COCOc1ccc(CCc2ccc3cc(C(C)NC(C)=O)oc3c2)cc1 (stereo not drawn) [Example 95, N-[1-(6-{2-[4-(methoxymethoxy)phenyl]ethyl}-1-benzofuran-2-yl)ethyl]acetamide] | 80% | 43% |  | 
CCOc1ccc(CCc2cnc3cc([C@H](C)NC(C)=O)oc3c2)cc1 [Example 107, N-[(1S)-1-{6-[2-(4-ethoxyphenyl)ethyl]furo[3,2-b]pyridin-2-yl}ethyl]acetamide] | 70% | 12% |  | 
CC(=O)NC(C)c1cc2cc(OCc3ccc(OCC4CC4)cc3F)ccc2o1 (stereo not drawn) [Example 110, N-[1-(5-{[4-(cyclopropylmethoxy)-2-fluorobenzyl]oxy}-1-benzofuran-2-yl)ethyl]acetamide] | 78% | 40% |  | 

Results, then the compound that gave them:

inhibition at 10 µM (human ACC2 (Nd)) | inhibition at 10 µM (human ACC1) | ACC2 10 μM inhibitory rate (%) (human ACC2 (Nd)) | ACC1 10 μM inhibitory rate (%) (human ACC1) | SMILES
76% | 25% |  |  | CCCOc1ccc(C#Cc2ccc3c(c2)O[C@H]([C@H](C)NC(C)=O)C3)cc1 [Example 115, N-[(1S)-1-{(2S)-6-[(4-propoxyphenyl)ethynyl]-2,3-dihydro-1-benzofuran-2-yl}ethyl]acetamide]
 |  | 63% | 24% | CC(=O)NC(C)c1cc2cc(OCc3ccc(OCC4CC4)cc3F)ccc2o1 (stereo not drawn) [Example 116 (retention time longer), N-[1-(5-{[4-(cyclopropylmethoxy)-2-fluorobenzyl]oxy}-1-benzofuran-2-yl)ethyl]acetamide]
78% | 8% |  |  | CCOc1ccc(CCc2ccc3cc(C(C)NC(C)=O)oc3n2)cc1 (stereo not drawn) [Example 123, N-(1-{6-[2-(4-ethoxyphenyl)ethyl]furo[2,3-b]pyridin-2-yl}ethyl)acetamide]
81% | 16% |  |  | CCOc1ccc(CCc2ccc3cc(C(C)Nc4ccon4)oc3c2)cc1 (stereo not drawn) [Example 124, N-(1-{6-[2-(4-ethoxyphenyl)ethyl]-1-benzofuran-2-yl}ethyl)isoxazol-3-amine]
83% | 33% |  |  | CCOc1ccc(/C=C/c2ccc3cc(C(C)NC(C)=O)oc3c2)cc1 (stereo not drawn) [Example 125, N-(1-{6-[(E)-2-(4-ethoxyphenyl)ethenyl]-1-benzofuran-2-yl}ethyl)acetamide]
91% | 46% |  |  | CC(=O)NC(C)c1cc2cc(OCc3ccc(OCC4CC4)cc3)ccc2o1 (stereo not drawn) [Example 132 (retention time longer), N-[1-(5-{[4-(cyclopropylmethoxy)benzyl]oxy}-1-benzofuran-2-yl)ethyl]acetamide]
